Where two headings read alike, the source gives them in different places. {bisMTX} = bis-methotrexate conjugate; {Fluorescein} = fluorescein label
Columns and labels:
[1] = test system: HPB-MLT cells; test: Cytotoxicity analysis (CellTiter 96 AQueous cell proliferation assay); assay type: cell-based
Method: 2.5×10^4 HPB-MLT cells were mixed with the appropriate concentration of antiCD3 CSANs in a total volume of 90 uL and incubated at 37° C. for one hour. […] Cell viability was determined using CellTiter 96 AQueous Non-Radioactive Cell Proliferation Assay (Promega).

[2] = Solubility in water; assay type: physicochemical
[3] = test system: DHFR; details: cited from earlier work
[4] = test system: HPB-MLT cells; test: Flow cytometry binding to CD3+ cells; assay type: cell-based; details: 4° C., 1 hr
Method: 1×10^6 HPB-MLT (or Raji) cells were treated with BisMTX-FITC containing CSAN constructs at the required concentrations at 4° C. for 1 hr in PBS buffer (containing 0.05% BSA and 0.1% sodium azide). Cells were centrifuged (400×g, 10 min), washed twice with PBS/BSA/sodium azide buffer before being resuspended in the same buffer. Their fluorescence was analyzed with a FACSCalibur flow cytometer (BD Biosciences). For competition experiments, HPB-MLT cells were incubated with 40 nM UCHT-1 on ice for 10 mins prior to addition BisMTX-FITC CSAN constructs anti-CD3 constructs (100 nM) followed by washing as above. For disassembly experiments HPB-MLT cells were treated with 150 nM CSANs or 3.95 nM UCHT-1 FITC for 1 hour at 37° C. before being washed twice with RPMI media and finally resuspended in media. […] Samples were stored at 4° C. in the dark until analyzed.
1×10^6 HPB-MLT cells were treated with FITC or BODIPY labeled constructs (1/0.5/0.1 μM) at 4° C. for 1 hr in PBS buffer (containing 0.05% BSA and 0.1% sodium azide). Cells were pelleted (400×g, 10 min), washed twice, and finally resuspended in the supplemented PBS and their fluorescence was analyzed with a FACSCalibur flow cytometer (BD Biosciences). […] After 1 hr incubation cells were washed, resuspended and analyzed by flow cytometry. […]

[5] = test system: HPB-MLT cells; test: Fluorescence confocal microscopy of internalization; assay type: cell-based; details: 37° C., 1 hr
Method: BisMTX-FITC (or BisMTX-PG) and the appropriate DHFR fusion protein were mixed (250 nM) and added to 0.5×10^6 HPB-MLT cells at either 4 or 37° C. for 1 hr in RPMI media. Cells were then pelleted by centrifugation (400×g, 5 min). After being washed twice with PBS (phosphate buffered saline) cells were incubated on Poly-Prep slides coated with poly-L-Lysine (Sigma) at 4 or 37° C. for 30 mins. Cells were then fixed with 4% paraformaldehyde solution for 10 mins and washed thrice with PBS. Finally, cells were treated with ProLong Gold Antifade reagent with DAPI (Invitrogen), a cover slip was applied.
After overnight incubation, images were taken within inner sections of the cells by sequential scanning using a fluorescence confocal microscopy using an Olympus FluoView 1000 BX2 Upright Confocal microscope. Resulting images are the compression of 3-5 z-axis slices. For disassembly experiments after the initial one hour incubation cells were washed twice with PBS before being resuspended in media containing 2 mM trimethoprim, 0.5 mM pyrimethamine or DMSO for three hours at 37° C. after which time they were processed as above. […]
0.5×10^6 HPB-MLT cells were treated with FITC or BODIPY labeled constructs (1 μM) at either 4 or 37° C. for 1 hr in RPMI media. […] After overnight incubation they were imaged by fluorescence confocal microscopy using a Olympus FluoView 1000 BX2 Upright Confocal microscope. […]

bis-methotrexate [bisMTX]
toxicity to HPB-MLT cells [1]: non-toxic
IC50 ([1]; 72 h; read-out: IC50 (inhibition of cellular proliferation)): > 20 µM

CN(Cc1cnc2nc(N)nc(N)c2n1)c1ccc(C(=O)N[C@@H](CCC(=O)NCCCCCN(CCCCCNC(=O)CC[C@@H](NC(=O)c2ccc(N(C)Cc3cnc4nc(N)nc(N)c4n3)cc2)C(=O)O)CCOCCOCCN)C(=O)O)cc1 [bis-MTX-NH2]
solubility in water [2]: water soluble

CN(Cc1cnc2nc(N)nc(N)c2n1)c1ccc(C(=O)N[C@@H](CCC(=O)O)C(=O)O)cc1 [MTX, methotrexate]
enhancement of the affinity of MTX for DHFR by NADPH [3]: at least 100 fold
IC50 ([1]; 72 h, read-out: IC50 (inhibition of cellular proliferation)): 0.6 µM
IC80 ([1]; 72 h; read-out: IC80 (inhibition of cellular proliferation)): > 50 µM

5′ Fluorescein-TGTCATATTCCTGGATCC-Bis-MTX 3′ (5' {Fluorescein}, 3' {bisMTX}, sugars by position and backbone not given here; further chemistry not fully specified) [bis-MTX oligo FITC, bis-MTX oligo conjugate labelled with fluorescein]
cell fluorescence relative to unstained/untreated cells (binding) [4]: only a small increase in fluorescence
internalization (confocal) [5]: no increased cellular fluorescence

CN(Cc1cnc2nc(N)nc(N)c2n1)c1ccc(C(=O)N[C@@H](CCC(=O)NCCCCCN(CCCCCNC(=O)CC[C@@H](NC(=O)c2ccc(N(C)Cc3cnc4nc(N)nc(N)c4n3)cc2)C(=O)O)CCOCCOCCNC(=S)Nc2cccc(-c3c4ccc(=O)cc-4oc4cc(O)ccc34)c2C(=O)O)C(=O)O)cc1 [bisMTX-FITC]
internalization (confocal) [5]: no observable internalized fluorescence
